Source: patent publication EP0230023B1, “Pharmaceutical compositions for the enhancement of wound healing” (MARION MERRELL DOW INC., priority 1985, dated 1987)
Where “and” joins values, the source holds several entries; their conditions need not be identical. Equal entries are not always repeated.

What was measured:
fibroblasts = test: Cell migration assay (Boyden chamber); format: cell-based; parameters: Chemokinesis: scale not given here
Protocol: Stimulation of directed movement of fibroblasts was assayed as described by Banda M.J., Knighton D.R., Hunt T.K., Werb A., Isolation of a nonmitogenic angiogenesis factor from wound fluid, Proc. Natl. Acad. Sci. 79:7773-7777, 1982. Briefly, solutions of sucrose octasulfate in PBS in concentrations resulting in final concentrations ranging from 10 -² to 10 -⁷ g/ml diluted to a final volume of 300 µℓ in DMEM supplemented with 10 percent rabbit platelet-poor plasma serum were placed in the bottom of Boyden blind-well chambers. Polylysine-coated, 5 µ -pore diameter, polycarbonate filters (Nucleopore) were placed over the test solution and 1.75-3.0 x 10⁶ fibroblasts suspended in DMEM added to the top compartment. The chambers were incubated for two and a half hours at 37 °C,
At the end of incubation of the top filter was fixed, stained and evaluated by counting the number of cells that had migrated to the bottom side of the filter. For each experiment five random fields per filter and at least 15 filters per each concentration of sucrose octasulfate were conducted. […]

collagen = test: Sucrose octasulfate induced collagen fibrillogenesis (stopped-flow turbidity); format: biochemical
Text: Sucrose octasulfate-induced collagen fibril formation was studied in a spectrophotometer equipped with a stopped-flow apparatus. […]

Structure (SMILES): O=S(=O)([O-])OC[C@H]1O[C@@](COS(=O)(=O)[O-])(O[C@H]2O[C@H](COS(=O)(=O)[O-])[C@@H](OS(=O)(=O)[O-])[C@H](OS(=O)(=O)[O-])[C@H]2OS(=O)(=O)[O-])[C@@H](OS(=O)(=O)[O-])[C@@H]1OS(=O)(=O)[O-].[K+].[K+].[K+].[K+].[K+].[K+].[K+].[K+] [Sucrose Octasulfate, potassium sucrose octasulfate]
- Chemokinesis (fibroblasts; score, Boyden chamber, scale not defined, potassium salts): 4
- Migrated fibroblasts, fold increase over negative control (fibroblasts; sucrose octasulfate 10⁻² g/ml, 2.5 hours at 37 °C): 0.4 fold increase over negative control
- Migrated fibroblasts, fold increase over negative control (fibroblasts; sucrose octasulfate 10⁻³ g/ml): 0.4 fold increase over negative control
- Migrated fibroblasts, fold increase over negative control (fibroblasts; sucrose octasulfate 10⁻⁴ g/ml): 0.6 fold increase over negative control
- Migrated fibroblasts, fold increase over negative control (fibroblasts; sucrose octasulfate 10⁻⁵ g/ml): 2.2 fold increase over negative control
- Migrated fibroblasts, fold increase over negative control (fibroblasts; sucrose octasulfate 10⁻⁶ g/ml): 2.1 fold increase over negative control
- Migrated fibroblasts, fold increase over negative control (fibroblasts; sucrose octasulfate 10⁻⁷ g/ml): 1.1 fold increase over negative control
- moles of sucrose octasulfate per mole of collagen initiating the reaction (collagen): five
- critical concentration (lower concentration required for initiation of fibrillogenesis of collagen) (collagen; collagen 0.5 mg/ml, pH 7.4): 0.01 mg/ml
- fibrillogenesis at pH 3.0 compared with pH 7.4 (collagen; pH 3.0): Identical results
- time to dissociation of the transient complex (collagen; sucrose octasulfate 0.01 mg/ml, collagen 0.5 mg/ml): ≤ 100 ms
- time of formation of collagen fibrils (collagen; sucrose octasulfate 0.2 mg/ml, collagen 0.5 mg/ml, pH 7.4): 60 to 70 ms and 60 to 75 ms
